This passage reports Kd and IC50 results from patent US20240025906A1 (NEURON23, INC., priority 2022, published 2024).

Test [1] deals with T1, TYK2 JH2 (Homo sapiens, UniProt P29597).
T1 construct: purchased DiscoverX (KINOMEscan KdELECT service); host or cells: E. coli BL21-derived (T7 phage display) or HEK-293
Nature of the test: TYK2 JH2 binding assay (KINOMEscan KdELECT competitive binding). The note with it: TYK2 JH2 domain, KINOMEscan KdELECT (Assay A); read-out: Biochemical TYK2_DiscoverX_JH2_BND_Kd. The method, boiled down: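 Test compounds were titrated in 11 three-fold steps against JH2 fragment captured on ligand-loaded magnetic beads, with 1 h incubation at room temperature and DMSO at 0.9%. Eluted kinase was quantified by qPCR, and Kd was fitted from the dose series.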

The subject of test [2] is JAK1/TYK2 pSTAT5 (Tyr694/699) in THP-1 cell line. Briefly: IFNa-stimulated JAK1/TYK2 pSTAT5 (Tyr694/699) inhibition cellular assay, AlphaLISA. The test is classed as cell-based. The note with it: Homo sapiens; THP-1 cells, IFNa-stimulated pSTAT5 (Tyr694/699), AlphaLISA (Assay B); read-out: Cellular_THP1_IFNa-pSTATS_TYK2. Summed up:
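pSTAT5 (Tyr694/699) in lysates quantified by AlphaLISA (615 nm) after 30 min IFNa stimulation (100 ng/mL stock) of THP-1 cells. The cells, 2e4 per well in HBSS, had first been exposed 1 h at 37° C. to eight 6-fold compound dilutions, 10000 down to 0.04 nM final. IC50 fitted by 4PL regression, bottom 0, Hill slope −1.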
Background: Bead proximity is the source of the signal in Alpha formats.

Bounds are passed on as bounds.

T1 sequence (P29597 589-875 limits assumed): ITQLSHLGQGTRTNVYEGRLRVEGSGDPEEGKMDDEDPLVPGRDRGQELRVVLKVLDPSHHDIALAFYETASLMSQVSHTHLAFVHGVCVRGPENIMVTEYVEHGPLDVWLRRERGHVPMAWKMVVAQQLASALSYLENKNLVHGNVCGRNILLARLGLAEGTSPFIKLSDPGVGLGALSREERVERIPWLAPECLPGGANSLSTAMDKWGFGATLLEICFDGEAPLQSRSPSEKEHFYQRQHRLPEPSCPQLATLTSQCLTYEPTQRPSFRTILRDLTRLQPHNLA

As to `CNc1ncc(C#Cc2ccc(OCF)cc2)c2cc(NC(=O)[C@H]3C[C@H]3C)ncc12` [Example 1073, (1S,2R)-N-[5-[2-[4-(fluoromethoxy)phenyl]ethynyl]-8-(methylamino)-2,7-naphthyridin-3-yl]-2-methyl-cyclopropanecarboxamide], the Kd in test [1] was no more than 100 nM. Also, the IC50 in test [2] is no more than 500 nM.
In the case of `CNc1ncc(C#Cc2ccc(N3CCOCC3)cc2)c2cc(NC(=O)[C@H]3C[C@H]3C)ncc12` [Example 1076, (1S,2R)-2-methyl-N-(8-(methylamino)-5-((4-morpholinophenyl)ethynyl)-2,7-naphthyridin-3-yl)cyclopropane-1-carboxamide], in test [1], the Kd is no more than 100 nM. Besides, the IC50 in test [2] was no more than 500 nM.
Consider `CCC1CN(c2ccc3nc(-c4cnc(NC)c5cnc(NC(=O)[C@H]6C[C@H]6C)cc45)nn3c2)CCO1` (stereo partly drawn) [Example 1077, (1S,2R)-N-[5-[6-(2-ethylmorpholin-4-yl)-[1,2,4]triazolo[1,5-a]pyridin-2-yl]-8-(methylamino)-2,7-naphthyridin-3-yl]-2-methyl-cyclopropanecarboxamide], for which, in test [1], the Kd is no more than 100 nM. The IC50 in test [2] was no more than 500 nM.
For the molecule `CNc1ncc(-c2nc3ccc(N4CCO[C@@H](C)C4)cn3n2)c2cc(NC(=O)C3CC3(C)C)ncc12` (stereo partly drawn) [Example 1080, 2,2-dimethyl-N-(8-(methylamino)-5-(6-((S)-2-methylmorpholino)-[1,2,4]triazolo[1,5-a]pyridin-2-yl)-2,7-naphthyridin-3-yl)cyclopropane-1-carboxamide], the Kd in test [1] was no more than 100 nM. Also, in test [2], the IC50 was no more than 500 nM.
As to `CNc1ncc(C#Cc2ccc(OC)cn2)c2cc(NC(=O)C3CCOCC3)ncc12` [Example 1081, N-[5-[2-(5-methoxy-2-pyridyl)ethynyl]-8-(methylamino)-2,7-naphthyridin-3-yl]tetrahydropyran-4-carboxamide], the Kd in test [1] is no more than 100 nM. For the same molecule, the IC50 in test [2] was no more than 500 nM.
As to `CNc1ncc(C#Cc2ccc(OC)cn2)c2cc(NC(=O)N3CCOCC3)ncc12` [Example 1082, N-[5-[2-(5-methoxy-2-pyridyl)ethynyl]-8-(methylamino)-2,7-naphthyridin-3-yl]morpholine-4-carboxamide], the Kd in test [1] is no more than 100 nM. Moreover, in test [2], the IC50 is no more than 500 nM.
As to `CNc1ncc(C#Cc2ccc(OC)cn2)c2cc(NC(=O)N3CC(OC)C3)ncc12` [Example 1083, 3-methoxy-N-[5-[2-(5-methoxy-2-pyridyl)ethynyl]-8-(methylamino)-2,7-naphthyridin-3-yl]azetidine-1-carboxamide], the Kd in test [1] is no more than 100 nM. Besides, the IC50 in test [2] is greater than 500 nM.
Turning to `CNc1ncc(C#Cc2ccc(OC)cn2)c2cc(NC(=O)C3COC3)ncc12` [Example 1084, N-[5-[2-(5-methoxy-2-pyridyl)ethynyl]-8-(methylamino)-2,7-naphthyridin-3-yl]oxetane-3-carboxamide], the Kd in test [1] was no more than 100 nM. The IC50 in test [2] was greater than 500 nM.
In the same order, the values of `CNc1ncc(-c2cn3cc(N4CCO[C@@H](C)C4)ccc3n2)c2cc(NC(=O)C3(F)CC3)ncc12` [Example 1085, 1-fluoro-N-[8-(methylamino)-5-[6-[(2S)-2-methylmorpholin-4-yl]imidazo[1,2-a]pyridin-2-yl]-2,7-naphthyridin-3-yl]cyclopropanecarboxamide] are no more than 100 nM and no more than 500 nM.
As for `CNc1ncc(-c2nc3cc(N(C)C(C)=O)ccc3o2)c2cc(Nc3cccc(OC)n3)ncc12` [Example 1086, N-[2-[6-[(6-methoxy-2-pyridyl)amino]-1-(methylamino)-2,7-naphthyridin-4-yl]-1,3-benzoxazol-5-yl]-N-methyl-acetamide], the Kd in test [1] was no more than 100 nM. In test [2], the IC50 was no more than 500 nM.
Regarding `CNc1ncc(C#Cc2ccc(OC)cn2)c2cc(Nc3cccn(-c4ccccn4)c3=O)ncc12` [Example 1087, 3-[[5-[2-(5-methoxy-2-pyridyl)ethynyl]-8-(methylamino)-2,7-naphthyridin-3-yl]amino]-1-(2-pyridyl)pyridin-2-one], the Kd in test [1] was no more than 100 nM. Besides, the IC50 in test [2] is greater than 500 nM.
In the same order, the values of `CNc1ncc(-c2nc3ccc(N4CCOCC4)cn3n2)c2cc(Nc3cc(C(C)(C)O)ccn3)ncc12` [Example 1088, 2-[2-[[8-(methylamino)-5-(6-morpholino-[1,2,4]triazolo[1,5-a]pyridin-2-yl)-2,7-naphthyridin-3-yl]amino]-4-pyridyl]propan-2-ol] are no more than 100 nM and no more than 500 nM.
Turning to `CNc1ncc(-c2nc3ccc(N4CCOCC4)cn3n2)c2cc(Nc3nccc(C(C)(C)O)c3F)ncc12` [Example 1089, 2-[3-fluoro-2-[[8-(methylamino)-5-(6-morpholino-[1,2,4]triazolo[1,5-a]pyridin-2-yl)-2,7-naphthyridin-3-yl]amino]-4-pyridyl]propan-2-ol], the Kd in test [1] is no more than 100 nM. Also, the IC50 in test [2] was no more than 500 nM.
In the case of `CNc1ncc(-c2nc3ccc(N4CCOCC4)cn3n2)c2cc(Nc3ccc(C(F)(F)F)cn3)ncc12` [Example 1090, N1-methyl-4-(6-morpholino-[1,2,4]triazolo[1,5-a]pyridin-2-yl)-N6-[5-(trifluoromethyl)-2-pyridyl]-2,7-naphthyridine-1,6-diamine], in test [1], the Kd was no more than 100 nM. For the same molecule, in test [2], the IC50 was greater than 500 nM.
In the same order, the values of `CNc1ncc(-c2nc3cc(NC(=O)C4CC4)ccc3o2)c2cc(NC(=O)C3CC3)ncc12` [Example 1091, N-(2-(6-(cyclopropanecarboxamido)-1-(methylamino)-2,7-naphthyridin-4-yl)benzo[d]oxazol-5-yl)cyclopropanecarboxamide] are no more than 100 nM and no more than 500 nM.
In the case of `CCC(=O)Nc1ccc2oc(-c3cnc(NC)c4cnc(NC(=O)C5CC5)cc34)nc2c1` [Example 1092, N-(8-(methylamino)-5-(5-propionamidobenzo[d]oxazol-2-yl)-2,7-naphthyridin-3-yl)cyclopropanecarboxamide], the Kd in test [1] was no more than 100 nM. Moreover, the IC50 in test [2] is no more than 500 nM.
With `CNc1ncc(-c2nc3cc(NC(=O)CC4CC4)ccc3o2)c2cc(NC(=O)C3CC3)ncc12` [Example 1093, N-(5-(5-(2-cyclopropylacetamido)benzo[d]oxazol-2-yl)-8-(methylamino)-2,7-naphthyridin-3-yl)cyclopropanecarboxamide], the Kd in test [1] was no more than 100 nM. Moreover, the IC50 in test [2] is no more than 500 nM.
Take `CNc1ncc(-c2nc3ccc(N4CCOCC4)cc3s2)c2cc(NC(=O)C3CC3)ncc12` [Example 1094, N-(8-(methylamino)-5-(6-morpholinobenzo[d]thiazol-2-yl)-2,7-naphthyridin-3-yl)cyclopropanecarboxamide]: the Kd in test [1] was no more than 100 nM. Besides, the IC50 in test [2] was no more than 500 nM.
`[2H]C([2H])(C)Nc1ncc(-c2nc3ccc(N4CCOCC4)cn3n2)c2cc(NC(=O)[C@H]3C[C@H]3C)ncc12` [Example 1095, (1S,2R)—N-(8-((ethyl-1,1-d2)amino)-5-(6-morpholino-[1,2,4]triazolo[1,5-a]pyridine-2-yl)-2,7-naphthyridin-3-yl)-2-methylcyclopropane-1-carboxamide]: the Kd in test [1] is no more than 100 nM. The IC50 in test [2] is no more than 500 nM.
On to `[2H]C([2H])(C)Nc1ncc(-c2nc3ccc(N4CCOCC4)cn3n2)c2cc(NC(=O)C3CC3)ncc12` [Example 1096, N-(8-((ethyl-1,1-d2)amino)-5-(6-morpholino-[1,2,4]triazolo[1,5-a]pyridin-2-yl)-2,7-naphthyridin-3-yl)cyclopropanecarboxamide], for which the Kd in test [1] was no more than 100 nM. Besides, the IC50 in test [2] was no more than 500 nM.
Regarding `CNc1ncc(-c2nc3cc(OC)ccc3o2)c2cc(NC(=O)NC3CC3)ncc12` [Example 1097, 1-cyclopropyl-3-(5-(5-methoxybenzo[d]oxazol-2-yl)-8-(methylamino)-2,7-naphthyridin-3-yl)urea], the Kd in test [1] is no more than 100 nM. The IC50 in test [2] was no more than 500 nM.
In the same order, the values of `CNc1ncc(-c2nc3cc(N4CCOCC4)ccc3o2)c2cc(Nc3ccc(C(C)(C)O)cn3)ncc12` [Example 1098] are no more than 100 nM and no more than 500 nM.
In the same order, the values of `CNc1ncc(-c2nc3cc(C(=O)NC4CC4)ccc3o2)c2cc(NC(=O)C3CC3)ncc12` [Example 1099, 2-(6-(cyclopropanecarboxamido)-1-(methylamino)-2,7-naphthyridin-4-yl)-N-cyclopropylbenzo[d]oxazole-5-carboxamide] are no more than 100 nM and no more than 500 nM.
As to `CCNC(=O)c1ccc2oc(-c3cnc(NC)c4cnc(NC(=O)C5CC5)cc34)nc2c1` [Example 1100, 2-(6-(cyclopropanecarboxamido)-1-(methylamino)-2,7-naphthyridin-4-yl)-N-ethylbenzo[d]oxazole-5-carboxamide], in test [1], the Kd was no more than 100 nM. Besides, in test [2], the IC50 was no more than 500 nM.
As for `CNc1ncc(-c2nc3cc(C(=O)NCC4CC4)ccc3o2)c2cc(NC(=O)C3CC3)ncc12` [Example 1101, 2-(6-(cyclopropanecarboxamido)-1-(methylamino)-2,7-naphthyridin-4-yl)-N-(cyclopropylmethyl)benzo[d]oxazole-5-carboxamide], in test [1], the Kd was no more than 100 nM. The IC50 in test [2] was no more than 500 nM.
As for `[2H]C([2H])(C)Nc1ncc(-c2nc3cc(OC)ccc3o2)c2cc(NC(=O)C3CC3)ncc12` [Example 1102, N-(8-((ethyl-1,l-rig)amino)-5-(5-methoxybenzo[d]oxazol-2-yl)-2,7-naphthyridin-3-yl)cyclopropanecarboxamide], in test [1], the Kd was no more than 100 nM. The IC50 in test [2] was no more than 500 nM.
